We go through four molecules from US7781423B2, “Compounds to promote regeneration of bone marrow” (priority 2007, dated 2010).

The subject of data set [1] is healthy mice. The experiment in a line: Toxicity in healthy mice. It counts as in vivo. Particulars: 1,000-1,500 μmole doses.
Data set [2] concerns MXT mammary tumor. It counts as in vivo. To be noted: for effect on body weight: MXT tumor-bearing, CP-treated mice, by day 22; for Total weight / Tumor weight / Body weight: CP 120-mg/kg i.p. x8 daily from day 6, CC compounds s.c. with each CP (1 and 3: 4.5-mg/kg, 26: 2.0-mg/kg); for Body weight: total minus tumor weight. As to the method: This experiment was designed to determine whether in a tumor model CC compounds could prevent cyclophosphamide-induced loss of body weight resulting from the depression of blood marrow function. Specified pathogen free (SPF) hygienic category colonies of first generation hybrid BDF1 (C57B1 female×DBA/2 male) adult female mice, weighing 23-24 g, were used. The animals were kept in macrolon cages at 22-24° C. (45-55% humidity), with a lighting regimen of 12/12 h light/dark. […] The animals used in these studies were cared for according to the “Guiding Principles for the Care and Use of Animals” based upon the Helsinki declaration.
MXT mammary tumor pieces (containing about 10^6 tumor cells) were implanted subcutaneously to develop the tumors. After six days when the tumor-bearing mice were first treated, the sizes of the tumors were in the 0.26-0.30 cm^3 range. All compounds used were dissolved in 0.9% sodium chloride and applied subcutaneously (CC compounds) or intraperitoneally (CP) in 50 μl volume. Tumor volume was determined by using calipers in three dimensions; this technique is well known to one having ordinary skill in the art. Tumor volume was calculated according to the generally accepted formula: V=a^2×b×π/6, where “a” and “b” mean the shortest and longest diameter, respectively, of the measured tumor.
In the first group, animals received no treatment. In the second group, mice were administered 120-mg/kg of CP on day 6 followed by seven consecutive daily treatments with the same dose. In the third group, each treatment with CP was associated with administration of 4.5-mg/kg of CCompound1. In the fourth group, each treatment with CP was associated with administration of 4.5-mg/kg of CCompound3. In the fifth group, each treatment with CP was associated with administration of 2.0-mg/kg of CCompound26. Each group included 7 mice. All data represent the average of 7 determinations (one determination with each mouse in the group).

Data set [3] relates to healthy mice. The experiment in a line: Toxicity in healthy mice. It counts as in vivo. Particulars: for well tolerated maximal dose: mice weighing about 25 g. As for the experimental part: Accordingly, a well tolerated maximal dose for CCompound1 or CCompound3 in mice (weighing about 25 g) is […] which corresponds to a dose of 4.6 mg/kg. Therapeutically effective concentrations of CC compounds in humans will exert significant promoting effects on bone marrow regeneration without causing toxicity in other normal healthy tissues.

A short description of data set [4]: Solubility in water.
Data set [5] deals with cyclophosphamide-treated mice. Put plainly: Blood profile in cyclophosphamide-treated mice. It counts as in vivo, C57B1 mice. To be noted: for effect on blood profile (WBC, PTL): cyclophosphamide-treated mice, CCompound26 at a smaller dose than the two others. As to the method:
Twelve week old female C57B1 mice were used for the experiments. Each drug was administered intraperitoneally once a day for 5 consecutive days. In the second, third, fourth and fifth groups, mice were administered 120 mg/kg of cyclophosphamide (CP). In a third group, mice were also administered 4.5 mg/kg of CCompound1. In a fourth group, mice were also administered 4.5 mg/kg of CCompound3. In a fifth group, mice were also administered 2.0 mg/kg of CCompound26. In the first group, mice received no treatment. Each group included 5 animals. After 3 hours of the last treatments (on day 5), blood samples were collected from the ocular venous plexus of ether-anesthetized mice by retro-orbital venipuncture in heparanized tubes. Complete cell counts (RBC, red blood cell; WBC, white blood cell; PTL, platelet) were determined with a Sysmex F-800 hematology analyzer (To a Medical Electronics Co. LTD, Kobe, Japan). All data shown in Table 2 are the average of 5 independent determinations.

Data set [6] deals with human cancer patients. To be noted: following stem cell transplantation; cited from earlier work.
The mark [7] stands for this setting: single 450 μmole (about 4.6 mg/kg) or daily 400 μmole for 5 consecutive days.
[8] abbreviates: day 6 after tumor transplantation (first treatment day).
Where [9] appears, read: day 8 after tumor transplantation.
Setting [10] is: day 11 after tumor transplantation.
The mark [11] stands for this setting: day 15 after tumor transplantation.
Setting [12] is: day 18 after tumor transplantation.
Where [13] appears, read: day 22 after tumor transplantation.
The mark [14] stands for this setting: i.p. once a day for 5 days, CP 120 mg/kg, CCompound1, 3: 4.5 mg/kg, CCompound26: 2.0 mg/kg, blood 3 hours after last treatment (day 5), 5 animals.

Like-named read-outs stand apart in the source and are kept apart here.

As to `CC[N+](C)(CC)CCOCc1ccc2sc3ccccc3c(=O)c2c1.[I-]` [CCcompound3], the “tissue alterations at high doses” value in data set [1] is “mild parenchymal degeneration in the heart, focal hypostasis and chronic bronchopneumonia”. Further, the “effect on body weight” value in data set [2] was “body weight gain”. Further, the “well tolerated maximal dose” value in data set [3] is listed as 450 μmole/animal; in data set [3] (corresponds to 450 μmole/animal), 4.6 mg/kg. Also, the “change in the composition of various blood constituents” value in data set [3] (setting [7]) is “did not cause any significant change”. Further, in data set [3] (setting [7]), the “pathological alterations in the liver, brain, kidney, heart, spleen, intestine, and lung” value is given as “did not induce significant pathological alterations”. In data set [4], the solubility in water entry is reported as “soluble in water”.
Turning to `C=CC[N+](CC)(CC)CC/C=C1/c2ccccc2Sc2ccc(C)cc21.[Br-]` [CCcompound26, N,N-Diethyl-N-allyl-3-(2-methyl-9H-thioxanthen-9-ylidene)-propane-1-aminium bromide], in data set [2] (2.0 mg/kg, inferred from prevented body weight loss), the “toxic effects at the effective dose” value is recorded as “does not exert significant toxic effects”. Also, the “effect on body weight” value in data set [2] was “prevented body weight loss”. In addition, the “effect on cyclophosphamide-induced decrease in white blood cell and platelet counts” value in data set [5] (2.0 mg/kg) is recorded as “partially reversed”. Further, the “effect on blood profile (WBC, PTL)” value in data set [5] is given as “least effective”. For the same molecule, in data set [4], the solubility in water result was “water-soluble”.
For the molecule `O=P1(N(CCCl)CCCl)NCCCO1` (centres unmarked) [CP, cyclophosphamide], in data set [2] (MXT tumor model), the “effect on tumor weight” value is given as “effectively decreased tumor weight”. In addition, the “effect on body weight” value in data set [2] is recorded as “lost significant amounts of weight”. In addition, the Total weight is recorded as 22.4 grams in data set [2] (setting [8]); 21.8 grams in data set [2] (setting [9]); 20.2 grams in data set [2] (setting [10]); 19.9 grams in data set [2] (setting [11]); 18.8 grams in data set [2] (setting [12]); 18.1 grams in data set [2] (setting [13]). The Tumor weight in data set [2] (setting [8]) came to 0.2 grams; in data set [2] (setting [9]) it was 0.2 grams; in data set [2] (setting [10]), 0.1 grams; in data set [2] (setting [11]) it was 0.2 grams; in data set [2] (setting [12]) it was 0.1 grams; in data set [2] (setting [13]) it was 0.1 grams. Besides, the Body weight in data set [2] (setting [8]) came out at 22.2 grams; in data set [2] (setting [9]), 21.6 grams; in data set [2] (setting [10]) it was 20.1 grams; in data set [2] (setting [11]), 19.7 grams; in data set [2] (setting [12]), 18.7 grams; in data set [2] (setting [13]), 18.0 grams. Further, the “effect on blood profile (WBC, PTL)” value in data set [5] was “decreases both WBC and PTL numbers”. In data set [5] (setting [14]), the PTL is 404 ± 55 ×10^3/μl. The RBC in data set [5] (setting [14]) was 8.1 ± 0.9 ×10^6/μl. The WBC in data set [5] (setting [14]) is 3.2 ± 0.7 ×10^6/μl.

B1: granulocyte-colony stimulating factor (protein, UniProt P09919 31-207, looked up)
Granulocyte …: TPLGPASSLPQSFLLKCLEQVRKIQGDGAALQEKLVSECATYKLCHPEELVLLGHSLGIPWAPLSSCPSQALQLAGCLSQLHSGLFLYQGLLQALEGISPELGPTLDTLQLDVADFATTIWQQMEELGMAPALQPTQGAMPAFASAFQRRAGGVLVASHLQSFLEVSYRVLRHLAQP
notes: cytokine that can reduce the duration and severity of cyclophosphamide-induced neutropenia
Consider B1, for which, in data set [6], the “time to recover the platelet count to about 100,000 per 1 μl” value is given as “about 14 days” and the “time to recover the white blood cell count to 2,500 per 1 μl (mm^3)” value was “about 10 days”.
